According to US8450479B2, “3-substituted-4-oxo-3,4-dihydro-imidazo[5,1-d][1,2,3,5-tetrazine-8-carboxylic acid amides and their use” (Pharminox Limited, priority 2007, dated 2013):
Values joined by “and” are separate entries in the source; they are usually repeats but may differ in a detail not shown here. Equal entries are not always repeated. Structures can show the parent of a compound that is named as a salt. Where two headings read alike, the source gives them in different places.

Legend:
Assay in all cases: MTT assay for 7-day toxicity assay
Type in all cases: cell-based
Glioma SNB19V (MGMT−) = conditions: for GI50: Glioma SNB19V (MGMT−)
Experimental: (§1) The cell culture techniques were carried out in a Class II microbiological safety cabinet which was swabbed with 70% IMS in distilled water before each use. […] MRC-5 cells were cultured in EMEM. Cells were grown in a humidified incubator containing 5% CO2 at 37° C. Cells were sub-cultured when growth exceeded approximately 80% confluence, normally twice weekly. The medium was aspirated from the flask and approximately 0.8 mL trypsin-EDTA 1× solution added. The cells were re-incubated at 37° C. until they visibly detached from the flask. The cell suspension was then re-suspended in 5 mL medium and 0.5-1 mL of the cell suspension was transferred to a new flask (25 cm^2) with 7 mL culture medium. The cells were further incubated at 37° C. incubator. Cells were disposed after passage nearly 30 times in order to minimize phenotypic drift. New batches of cells were taken from liquid nitrogen storage by thawing rapidly (37° C. water bath) and re-suspension in a 25 cm^2 flask with 10 mL of culture medium. Two passages were allowed to resume normal growth. For long-term maintenance, viable cells at 60-80% confluence were detached by minimum amount of trypsin/EDTA and re-suspended in sterile filtered freezing medium (95% FBS, 5% DMSO), transferred to sterile cryogenic vials, and frozen overnight at −20° C. followed by −80° C. for 1-2 days and stored in liquid nitrogen for long term storage.
(§2) Most test compounds, including temozolomide, were prepared as stock solution (100 mM) in DMSO and stored at −20° C. for not more than 6 months.
(§3) Glioma cell lines, SNB19 and U373, both MGMT transfected (i.e., SNB19M and U373M) and vector controls (i.e., SNB19V and U373V); colorectal carcinoma cell lines, HCT116, HT29, and DLD1; melanoma cell line, SKMEL-28; breast cell line, MCF-7; and normal human fetal lung fibroblast cell line, MRC-5; were harvested at 60-80% confluence—during the logarithmic phase of growth.
(§4) Following harvesting, cells in suspension were gently syringed through a 23 gauge needle to obtain a near-single cell suspension. The desired cell seeding densities were used and added into 96-well plates in 180 μL culture medium if only one test compound was to be added, or 160 μL if two test compounds were to be added in combination, which were allowed to attach at 37° C. (5% CO2) overnight. For the 7 day assay, the cell seeding density for different cell lines was as follows: SNB19V, SNB19M: 650 cells/well; U373V, U373M: 650 cells/well; SNB19VR, U373VR: 650 cells/well; HCT116, DLD-1, SKMEL-28, MRC-5, MCF-7: 400 cells/well.
(§5) The two peripheral lanes were used as blank wells (cell free) and filled with 200 μL of medium in order to minimise medium evaporation from the plate. A separate time zero (T0) plate was set up alongside other plates. Serial dilutions in tissue culture medium of a 100 mM stock of test compound in DMSO were prepared immediately before each assay to ten times the final concentrations required, and then 20 μL was added to each well (200 μL total media per well) to achieve final concentrations of 0.5 μM, 1 μM, 5 μM, 10 μM, 50 μM, 100 μM, 500 μM, and 1000 μM. A minimum of four wells received the same test compound concentration. To control wells, including those in the T0 plate, 20 μL of medium was added. […] A separate plate treated in the same way, but free of test compound, was used as a measure of cell viability at the time of drug addition (day 0).
(§6) After incubation at 37° C., 5% CO2 for 7 days (or immediately for the day 0 plate), cell viability was quantified using the MTT assay. 50 μL of sterile filtered MIT (3-(4,5-dimethylthiazol-2-yl)-2,5-diphenyltetrazolium bromide) (2 mg/mL in phosphate buffered saline) were added to each well (final concentration 0.4 mg/mL) and the plates were re-incubated for 4 hours to allow metabolic conversion of MTT by dehydrogenases in viable cells to insoluble formazan crystals.
(§7) The intensity of absorbance is directly proportional to cell viability.

Glioma SNB19M (MGMT+) = conditions: for GI50: Glioma SNB19M (MGMT+)
Experimental: as §1, §2, §3, §4, §5, §6, §7

Glioma U373V (MGMT low) = conditions: Glioma U373V (MGMT low)
Experimental: as §1, §2, §3, §4, §5, §6, §7

Glioma U373M (MGMT+) = conditions: Glioma U373M (MGMT+), 7-day MTT, single determinations, read-out: GI50
Experimental: as §1, §2, §3, §4, §5, §6, §7

[1] = 168 h, 7-day MTT, single determinations, read-out: GI50
[2] = 7-day MTT, single determinations, read-out: GI50

Compound | GI50 (Glioma SNB19V (MGMT−); [1]) [µM] | GI50 (Glioma SNB19V (MGMT−); [2]) | GI50 (Glioma SNB19M (MGMT+); [1]) [µM] | GI50 (Glioma SNB19M (MGMT+); [2]) | GI50 (Glioma U373V (MGMT low); [1]) [µM] | GI50 (Glioma U373V (MGMT low); [2]) | GI50 (Glioma U373M (MGMT+); 168 h) [µM] | GI50 (Glioma U373M (MGMT+)) | other results
CC(c1ccc(Br)cc1)n1nnc2c(C(N)=O)ncn2c1=O (racemic) [BB-005, (+/−) 3-(-1-(4-Bromophenyl)ethyl)-8-carbamoylimidazotetrazin-4-one] | 42 | 80.2 µM and 81 µM and 70.2 µM | – | – | – | – | – | – | –
COc1ccc(Cn2nnc3c(C(N)=O)ncn3c2=O)cc1OC [AA-005, 3-(3,4-dimethoxybenzyl)-4-oxo-3,4-dihydroimidazo[5,1-d][1,2,3,5]tetrazine-8-carboxamide] | 218 | 114 µM | 282 | 232 µM | 197 | 259 µM | 301 | 224 µM | –
COc1ccc([C@@H](C)n2nnc3c(C(N)=O)ncn3c2=O)cc1 [BB-003, (R)-3-(−1-(4-Methoxyphenyl)ethyl)-8-carbamoylimidazotetrazin-4-one] | 55.8 | 93.7 µM | 72.3 | 97.1 µM | 71 | 138 µM | – | – | –
NC(=O)c1ncn2c(=O)n(Cc3ccsc3)nnc12 [CC-001, 4-oxo-3-(thiophen-3-ylmethyl)-3,4-dihydroimidazo[5,1-d][1,2,3,5]tetrazine-8-carboxamide] | 79.6 | 117 µM | 208 | 135 µM | 206 | 160 µM | 198 | 232 µM | –
NC(=O)c1ncn2c(=O)n(Cc3cccs3)nnc12 [CC-002, 4-oxo-3-(thiophen-2-ylmethyl)-3,4-dihydroimidazo[5,1-d][1,2,3,5]tetrazine-8-carboxamide] | 76.7 | 52 µM | 63.6 | 54.7 µM | 149 | 81.4 µM | 96.8 | 52.2 µM | –
Cc1noc(Cn2nnc3c(C(N)=O)ncn3c2=O)n1 [CC-003, 3-(3-Methyl-[1,2,4]oxadiazol-5-ylmethyl)-4-oxo-3,4-dihydro-imidazo[5,1-d][1,2,3,5]tetrazine-8-carboxylic acid amide] | 208 | 176 µM | 198 | 208 µM | – | – | 196 | 391 µM | –
Cc1cc(Cn2nnc3c(C(N)=O)ncn3c2=O)on1 [CC-004, 3-(3-Methyl-isoxazol-5-ylmethyl)-4-oxo-3,4-dihydro-imidazo[5,1-d][1,2,3,5]tetrazine-8-carboxylic acid amide] | 38 | 54.9 µM | – | – | – | – | 29.3 | – | –
NC(=O)c1ncn2c(=O)n(Cc3c[nH]nn3)nnc12 [CC-005, 4-Oxo-3-(1H-[1,2,3]triazol-4-ylmethyl)-3,4-dihydro-imidazo[5,1-d][1,2,3,5]tetrazine-8-carboxylic acid amide] | 357 | 239 µM | 257 | 409 µM | 261 | 400 µM | 334 | 330 µM | –
CC#CCn1nnc2c(C(N)=O)ncn2c1=O [EE-002, 3-But-2-ynyl-4-oxo-3,4-dihydro-imidazo[5,1-d][1,2,3,5]tetrazine-8-carboxylic acid amide] | 33.5 | 45.8 µM | 38.1 | 37.1 µM | 42.1 | 31.1 µM | 41.1 | 25.1 µM | –
C[Si](C)(C)C#CCn1nnc2c(C(N)=O)ncn2c1=O [EE-003, 4-Oxo-3-(3-trimethylsilanyl-prop-2-ynyl)-3,4-dihydro-imidazo[5,1-d][1,2,3,5]tetrazine-8-carboxylic acid amide] | 41.7 | 36.6 µM | 42.9 | 35.2 µM | 26.8 | 33.6 µM | 31.5 | 30 µM | –
NC(=O)c1ncn2c(=O)n(C3CCCC3)nnc12 [FF-001, 3-Cyclopentyl-8-carbamoylimidazotetrazin-4-one] | 318 | 266 µM | 292 | 238 µM | 169 | 163 µM | 228 | 204 µM | –
NC(=O)c1ncn2c(=O)n(C3CC3)nnc12 [FF-002, 3-Cyclopropyl-8-carbamoylimidazotetrazin-4-one] | 516 | 376 µM and 392 µM | 593 | 637 µM and 418 µM | 293 | 386 µM and 241 µM | 369 | 346 µM and 367 µM | –
NC(=O)c1ncn2c(=O)n(CC3CCCCC3)nnc12 [GG-001, 3-Cyclohexylmethyl-8-carbamoylimidazotetrazin-4-one] | – | – | 831 | 445 µM | 717 | > 1000 µM | – | – | –
NC(=O)c1ncn2c(=O)n(CC3CC3)nnc12 [GG-003, 3-Cyclopropylmethyl-8-carbamoylimidazotetrazin-4-one] | – | – | 152 | 293 µM | 386 | – | – | – | –
NC(=O)c1ncn2c(=O)n(C3CCNCC3)nnc12 [HH-001, 3-Piperidin-4-yl-8-carbamoylimidazotetrazin-4-one hydrobromide] | 167 | – | – | – | – | – | 72 | – | GI50 (Glioma SNB19V (MGMT−); 7-day MTT, single determinations, hydrobromide, read-out: GI50): 190 µM; GI50 (Glioma U373M (MGMT+); hydrobromide): 115 µM
NC(=O)CCn1nnc2c(C(N)=O)ncn2c1=O [JJ-004, 3-(8-Carbamoyl-oxoimidazo[5,1-d][1,2,3,5]tetrazin-3(4H)-yl)propanamide] | 348 | 294 µM | 417 | 281 µM | – | – | – | – | –
CC(C)(C)C(=O)OCn1nnc2c(C(N)=O)ncn2c1=O [LL-004, 2,2-Dimethyl-propionic acid 8-carbamoyl-4-oxo-imidazo[5,1-d][1,2,3,5]tetrazin-3-ylmethyl ester] | 47.2 | 35.9 µM and 51.9 µM | – | – | – | – | – | – | –
CC(C)(C)OC(=O)Cn1nnc2c(C(N)=O)ncn2c1=O [LL-006, (8-Carbamoyl-4-oxo-imidazo[5,1-d][1,2,3,5]tetrazin-3-yl)-acetic acid tert-butyl ester] | – | – | – | – | – | – | – | – | GI50 (Glioma SNB19M (MGMT+); 168 h, 7-day MTT, single determinations): 64 µM; GI50 (Glioma SNB19M (MGMT+); 7-day MTT, single determinations): 60.5 µM and 87.2 µM
CCOP(=O)(Cn1nnc2c(C(N)=O)ncn2c1=O)OCC [VV-001, (8-Carbamoyl-4-oxo-imidazo[5,1-d][1,2,3,5]tetrazin-3-ylmethyl)-phosphonic acid diethyl ester] | – | – | – | – | – | – | – | – | GI50 (Glioma SNB19M (MGMT+)): 102 µM and 85.6 µM; activity compared with TMZ, in words (Glioma SNB19M (MGMT+); SNB19M glioma cell line): more active than TMZ; GI50 (Glioma U373V (MGMT low)): 306 µM and 174 µM; GI50 (Glioma SNB19V (MGMT−)): 73.6 µM and 63.4 µM; activity compared with TMZ, in words (Glioma SNB19V (MGMT−); SNB19V glioma cell line): more active than TMZ
